# Measurements as given in patent US20220168314A1, “MEDICAMENT FOR PROPHYLAXIS OR TREATMENT OF PULMONARY FIBROSIS” (MITSUBISHI TANABE PHARMA CORPORATION, priority 2019, published 2022).
# Key:
# [1] = Concentration of the compound (I) in blood plasma, Example 1; format: in vivo, mouse; conditions: 10 mg/kg oral
# Procedure: On a day (Day 0) when the test was started, bleomycin (3.25 U/kg) was administered dropwise through airways to the mice of Groups 2-4 as test groups. Instead of bleomycin, saline was administered dropwise through airways to the mice of Group 1 as a normal group. On a seventh day (Day 7) after the start of the test, with a dosing schedule of twice a day in the morning and afternoon, oral gavage administration (twice in the morning and afternoon) of a vehicle (0.1% HCO60+0.5% CMC) was started for the mice of Groups 1 and 2; a 2 mg/ml solution of the compound (I) was prepared and oral gavage administration (in the morning) thereof at a dose of 10 mg/kg and oral gavage administration (in the afternoon) of a vehicle (0.1% HCO60+0.5% CMC) were started for the mice of Group 3; and oral gavage administration (twice in the morning and afternoon) of eplerenone at a dose of 50 mg/kg was started for the mice of Group 4. Thereafter, until a 21st day (Day 21) after the start of the test, the administrations were continued at the same dosing schedules. […]
# At 2 hours (before the above evaluations) and at 18 hours from the final administration of the compound (I) (Day 21), a small amount of blood was collected from a tail vein under anesthesia, and plasma was separated with an ice-cooled centrifuge, and a concentration (nM) of the compound (I) in the plasma was measured using a conventional method.
# [2] = system: bleomycin intra airway administration induced mouse pulmonary fibrosis model; experiment: Lung functions in bleomycin intra airway administration induced mouse pulmonary fibrosis model (Example 1); format: in vivo; conditions: Day 21; oral gavage Day 7-21; compound (I) 10 mg/kg once a day, eplerenone 50 mg/kg twice a day; vs bleomycin control group
# Procedure: (§1) C57/BL6NTAC mice (male; body weight at start of a test: 25 g) (manufactured by The Jackson Laboratory) were grouped into the following 4 groups (12 mice in each group):
# (§2) Group 1: normal group Group 2: no drug administration group (control group) Group 3: drug (the compound (I)) administration group Group 4: drug (eplerenone; positive control) administration group
# (§3) On a day (Day 0) when the test was started, bleomycin (3.25 U/kg) was administered dropwise through airways to the mice of Groups 2-4 as test groups. Instead of bleomycin, saline was administered dropwise through airways to the mice of Group 1 as a normal group. On a seventh day (Day 7) after the start of the test, with a dosing schedule of twice a day in the morning and afternoon, oral gavage administration (twice in the morning and afternoon) of a vehicle (0.1% HCO60+0.5% CMC) was started for the mice of Groups 1 and 2; a 2 mg/ml solution of the compound (I) was prepared and oral gavage administration (in the morning) thereof at a dose of 10 mg/kg and oral gavage administration (in the afternoon) of a vehicle (0.1% HCO60+0.5% CMC) were started for the mice of Group 3; and oral gavage administration (twice in the morning and afternoon) of eplerenone at a dose of 50 mg/kg was started for the mice of Group 4. Thereafter, until a 21st day (Day 21) after the start of the test, the administrations were continued at the same dosing schedules. After the administrations were completed (Day 21), the following evaluation items were examined.
# The following evaluation items were measured using a commercially available respiratory and lung function evaluation system (measurement site: around an airway). Evaluation of 4 items including: 1) inspiratory capacity (mL); 2) compliance (mL/cmH2O); 3) elastance) (cmH2O/mL); and 4) resistance (cmH2O.s/mL)
# The “inspiratory capacity” corresponds to an amount of air discharged from the lungs at a stage when slowly breathing out to an end of a breath has completed, and is an indicator of a volume of the lungs. As pulmonary fibrosis progresses and the lung hardens, the volume of the lungs shrinks, and the inspiratory capacity decreases.
# The “compliance” indicates a change in a lung capacity due to a certain change in pressure. […] As pulmonary fibrosis progresses and the lungs harden, the volume of the lungs shrinks, and the compliance decreases.
# The “elastance” is a value represented by a reciprocal of the compliance, and is an indicator representing the difficulty for the lungs to stretch. As pulmonary fibrosis progresses and the lungs harden, the elastance increases.
# The “resistance” means an airway resistance. The resistance is a resistance received by an air current in respiration, and a larger resistance means that it is harder for air to flow through the airway.
# [3] = system: bleomycin subcutaneous continuous infusion induced mouse pulmonary fibrosis model; experiment: Lung pathological tissue (picrosirius red staining, hydroxyproline content), Example 2; format: in vivo; conditions: for hydroxyproline content (μg): right lung lobes
# Procedure: (§4) Body weights of the mice of the test group were measured daily, and, on the seventh day (Day 7) after the start of the test, the mice of the test group were randomly grouped as follows using an amount of decrease in body weight as an indicator.
# (§5) Group 2: no drug administration group (control group) (12 mice) Group 3: drug (the compound (I), 3 mg/kg) administration group (12 mice) Group 4: drug (the compound (I), 10 mg/kg) administration group (12 mice) Group 5: drug (the compound (I), 30 mg/kg) administration group (12 mice)
# (§6) From an eighth day (Day 8) after the start of the test, oral gavage administration of a vehicle (0.1 ml per 10 g body weight) to the mice of Group 1 as the normal group and the mice of Group 2 as the no drug administration group was started, and, on the other hand, oral gavage administration of the compound (I) of a predetermined dosage to the mice of the drug administration groups of Groups 3-5 was started (for all groups, once a day in the morning). Thereafter, until a 21st day (Day 21) after the start of the test, the administrations were continued. After the administrations were completed, the following items were evaluated.
# i) Evaluation by Picrosirius Red Staining (Left Lung Lobes)
# ii) Evaluation of Hydroxyproline Content (μg) (Right Lung Lobes)
# [4] = system: gene expression associated with pulmonary fibrosis; experiment: Gene expression fluctuation associated with pulmonary fibrosis (mRNA, real time PCR, upper lung lobes), Example 1; format: in vivo, mouse; conditions: Day 21, compound (I) 10 mg/kg once a day, eplerenone 50 mg/kg twice a day
# Procedure: as §1, §2, §3
# (iii) Evaluation of Gene Expression Fluctuation Associated with Pulmonary Fibrosis (Quantification of mRNA; Fold Increase) (Upper Lung Lobes)
# According to a conventional method, mRNA was extracted from a homogenized upper lung lobe, and an extremely small amount of the mRNA was quantified using a real time PCR system.
# [5] = system: bleomycin subcutaneous continuous infusion induced mouse pulmonary fibrosis model; experiment: Lung functions in bleomycin subcutaneous continuous infusion induced mouse pulmonary fibrosis model (Example 2); format: in vivo
# Procedure: as §4, §5, §6
# Evaluation of 4 items including: 1) inspiratory capacity (mL); 2) compliance (mL/cmH2O); 3) elastance) (cmH2O/mL); and 4) resistance (cmH2O.s/mL)
# [6] = system: bleomycin intra airway administration induced mouse pulmonary fibrosis model; experiment: Lung pathological tissue (picrosirius red staining, hydroxyproline content), Example 1; format: in vivo; conditions: Day 21, compound (I) 10 mg/kg once a day, eplerenone 50 mg/kg twice a day; for positive rate (PSR Positive %) in picrosirius red staining: left lung lobes; for hydroxyproline content (μg): lower lung lobes and middle lung lobe
# Procedure: as §1, §2, §3
# Pulmonary fibrosis is caused by that activated fibroblasts are accumulated at a fibrosis site and a large amount of type I collagen is produced. Therefore, based on a degree of collagen accumulation in a lung tissue, a degree of pulmonary fibrosis can be evaluated. Type I collagen and type III collagen in a tissue are stained by picrosirius red staining. Therefore, a situation of collagen accumulation can be image-diagnosed, and quantitative evaluation can also be performed by calculating a staining positive rate.
# Specifically, the above staining was performed on a tissue section of the lungs, and an area of a stained site (fibrosis site) was measured and evaluated.
# Hydroxyproline is a major component of collagen and is substantially absent in other proteins. Therefore, by measuring a content of hydroxyproline in a tissue, an amount of collagen can be evaluated.
# [7] = Concentration of the compound (I) in blood plasma, Example 2; format: in vivo, mouse
# Procedure: as §6
# Evaluation of a concentration (nM) of the compound (I) in a blood plasma at 2 hours (before the above evaluations) and at 24 hours after the final administration (Day 21) (similar to Example 1, blood samples obtained by tail vain blood sampling were evaluated.)
# [8] = biological target: CYP3A4 (Homo sapiens, UniProt P08684); conditions: background statement; cited from earlier work
# CYP3A4, sequence (P08684 whole entry): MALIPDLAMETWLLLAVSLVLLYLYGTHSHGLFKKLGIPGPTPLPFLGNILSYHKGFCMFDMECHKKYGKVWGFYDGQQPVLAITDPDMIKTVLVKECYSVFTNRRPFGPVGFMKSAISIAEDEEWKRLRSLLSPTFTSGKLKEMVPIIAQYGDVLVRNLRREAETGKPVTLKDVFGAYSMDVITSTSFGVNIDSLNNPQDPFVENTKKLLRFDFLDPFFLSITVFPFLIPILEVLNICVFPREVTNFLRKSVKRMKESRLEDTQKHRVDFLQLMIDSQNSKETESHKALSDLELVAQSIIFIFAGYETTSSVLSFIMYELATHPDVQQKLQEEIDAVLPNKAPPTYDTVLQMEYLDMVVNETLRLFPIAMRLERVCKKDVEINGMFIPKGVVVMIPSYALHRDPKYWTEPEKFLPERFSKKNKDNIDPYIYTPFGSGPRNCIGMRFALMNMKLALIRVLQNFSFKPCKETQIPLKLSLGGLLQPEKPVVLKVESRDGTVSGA
# [9] = system: bleomycin-induced pulmonary fibrosis mice; conditions: literature reports; cited from earlier work
# [10] = 30 mg/kg oral once a day, Day 8-21 (Group 5)
# [11] = 3, 10 and 30 mg/kg oral once a day, Day 8-21 (Groups 3-5), dose-dependent
SMILES,compliance (mL/cmH2O) [2],elastance (cmH2O/mL) [2],inspiratory capacity (mL) [2],resistance (cmH2O.s/mL) [2],CTGF gene expression [4],Ccl2 gene expression [4],PAI-1 gene expression [4],TGFβ gene expression [4],fibronectin gene expression [4],type I collagen gene expression [4],type III collagen gene expression [4],type IV collagen gene expression [4],vimentin gene expression [4],αSMA gene expression [4],positive rate (PSR Positive %) in picrosirius red staining [6],hydroxyproline content (μg) [6],further results
CC1(C)Oc2cc(NS(C)(=O)=O)ccc2N(c2ccc(F)cc2)C1=O [compound (I)],significantly improving,significantly improving,significantly improved to an extent exceeding the effect of eplerenone,very significantly improved to a level of the normal group exceeding the effect of eplerenone,significantly reduced,significantly reduced,significantly reduced,tendency to decrease,significantly reduced,significantly reduced,significantly reduced,significantly reduced,significantly reduced,significantly reduced,significantly improving,significantly improved to an extent exceeding the effect of eplerenone,"concentration of the compound (I) in a blood plasma ([1]; 2 hours after the final administration (Day 21)): sufficient concentration; concentration of the compound (I) in a blood plasma ([1]; 18 hours after the final administration (Day 21)): sufficient concentration; positive rate in picrosirius red staining ([3]; left lung lobes, all the doses 3, 10, 30 mg/kg oral once a day (Groups 3-5)): significantly decreased; hydroxyproline content (μg) ([3]; 3 mg/kg oral once a day, Day 8-21 (Group 3)): significantly decreased; hydroxyproline content (μg) [3, 10]: significantly decreased; inspiratory capacity (mL) ([5]; 10 mg/kg oral once a day, Day 8-21 (Group 4)): significantly improved; inspiratory capacity (mL) [5, 10]: significantly improved; resistance (cmH2O.s/mL) [5, 10]: significantly improved; compliance (mL/cmH2O) [5, 11]: significantly improved; elastance (cmH2O/mL) [5, 11]: significantly improved; concentration of the compound (I) in a blood plasma ([7]; 2 hours after the final administration (Day 21), 3, 10, 30 mg/kg oral): dose-dependent concentration; concentration of the compound (I) in a blood plasma ([7]; 24 hours after the final administration (Day 21), 30 mg/kg oral): sufficient concentration"
"COC(=O)[C@@H]1CC2=CC(=O)CC[C@]2(C)[C@@]23O[C@@H]2C[C@@]2(C)[C@@H](CC[C@@]24CCC(=O)O4)[C@H]13 [eplerenone, reference compound]",significantly improved,significantly improved,significantly improved,significantly improved,significantly reduced,significantly reduced,significantly reduced,tendency to increase,significantly reduced,could not reduce,could not reduce,could not reduce,significantly reduced,could not reduce,significantly improved,significantly improved,metabolizing enzyme [8]: mainly metabolized by CYP3A4
CC(=O)S[C@@H]1CC2=CC(=O)CC[C@]2(C)[C@H]2CC[C@@]3(C)[C@@H](CC[C@@]34CCC(=O)O4)[C@H]12 [spironolactone],,,,,,,,,,,,,,,,,accumulation of hydroxyproline (indicator of tissue fibrosis) [9]: improves
